Assays:
[1] = 298.15 K, 100 kPa, Liquid; for speed of sound: Frequency=3 MHz, Single path-length method; for mass density: Vibrating tube method
[2] = xn = mol fraction of the nth substance listed; details: 298.15 K, 100 kPa, Liquid; for speed of sound: Frequency=3 MHz, Single path-length method; for mass density: Vibrating tube method
[3] = excess molar enthalpy (molar enthalpy of mixing); xn = mol fraction of the nth substance listed; details: 298.15 K, 100 kPa, Liquid, Power-compensation calorimetry

CCOC(=O)C(C)O (racemic) [DL-ethyl lactate]
[1]
Details | mass density [kg/m3] | speed of sound [m/s]
– | 1028.45 | 1279.3

CCOC(=O)C(C)O (stereo not drawn) [DL-ethyl lactate] + CCCCO
Details | excess molar enthalpy, [3] [kcal/mol] | mass density, [2] [kg/m3] | speed of sound, [2] [m/s]
x1 = 0.048 | 0.0471 | – | –
x1 = 0.0502 | – | 819.65 | 1241.3
x1 = 0.0914 | – | 830.65 | 1242.1
x1 = 0.103 | 0.0841 | – | –
x1 = 0.1929 | – | 856.89 | 1244.7
x1 = 0.233 | 0.136 | – | –
x1 = 0.3041 | – | 884.31 | 1248.3
x1 = 0.314 | 0.149 | – | –
x1 = 0.4061 | – | 908.31 | 1252.3
x1 = 0.414 | 0.154 | – | –
x1 = 0.4991 | – | 929.27 | 1256
x1 = 0.527 | 0.146 | – | –
x1 = 0.6037 | – | 951.84 | 1260.8
x1 = 0.626 | 0.127 | – | –
x1 = 0.707 | – | 973.11 | 1265.9
x1 = 0.714 | 0.0992 | – | –
x1 = 0.7968 | – | 990.82 | 1270.1
x1 = 0.82 | 0.0588 | – | –
x1 = 0.8927 | – | 1008.98 | 1274.6
x1 = 0.91 | 0.0299 | – | –
x1 = 0.951 | 0.0129 | – | –
x1 = 0.9527 | – | 1019.97 | 1277.3
x1 = 1 | – | 1028.45 | 1279.3

CCOC(=O)C(C)O (stereo not drawn) [DL-ethyl lactate] + CCCO
Details | excess molar enthalpy, [3] [kcal/mol] | mass density, [2] [kg/m3] | speed of sound, [2] [m/s]
x1 = 0.025 | 0.0229 | – | –
x1 = 0.0489 | – | 816.57 | 1211.1
x1 = 0.054 | 0.0473 | – | –
x1 = 0.1025 | – | 834.15 | 1216.4
x1 = 0.117 | 0.0815 | – | –
x1 = 0.2027 | – | 864.58 | 1225.8
x1 = 0.216 | 0.109 | – | –
x1 = 0.3036 | – | 892.35 | 1235.2
x1 = 0.309 | 0.12 | – | –
x1 = 0.3973 | – | 915.89 | 1242.5
x1 = 0.404 | 0.121 | – | –
x1 = 0.4963 | – | 938.64 | 1250.2
x1 = 0.517 | 0.115 | – | –
x1 = 0.6012 | – | 960.68 | 1257.8
x1 = 0.612 | 0.101 | – | –
x1 = 0.6951 | – | 978.76 | 1263.9
x1 = 0.712 | 0.0765 | – | –
x1 = 0.8061 | – | 998.37 | 1270.4
x1 = 0.814 | 0.0459 | – | –
x1 = 0.905 | 0.021 | – | –
x1 = 0.9076 | – | 1014.74 | 1275.6
x1 = 0.9482 | – | 1020.9 | 1277.3
x1 = 1 | – | 1028.45 | 1279.3

CCOC(=O)C(C)O (stereo not drawn) [DL-ethyl lactate] + CCO
Details | excess molar enthalpy, [3] [kcal/mol] | mass density, [2] [kg/m3] | speed of sound, [2] [m/s]
x1 = 0.0522 | – | 809.88 | 1158.1
x1 = 0.054 | 0.0177 | – | –
x1 = 0.0957 | – | 828.74 | 1169.7
x1 = 0.114 | 0.0337 | – | –
x1 = 0.1946 | – | 866.53 | 1192.8
x1 = 0.225 | 0.0502 | – | –
x1 = 0.2902 | – | 897.43 | 1211.3
x1 = 0.312 | 0.0554 | – | –
x1 = 0.4011 | – | 927.58 | 1229.3
x1 = 0.42 | 0.0574 | – | –
x1 = 0.4995 | – | 950.3 | 1240.8
x1 = 0.511 | 0.0538 | – | –
x1 = 0.6076 | – | 971.75 | 1252.8
x1 = 0.635 | 0.0457 | – | –
x1 = 0.6931 | – | 986.54 | 1261.4
x1 = 0.737 | 0.0349 | – | –
x1 = 0.7965 | – | 1002.43 | 1268.7
x1 = 0.829 | 0.0217 | – | –
x1 = 0.9047 | – | 1017.03 | 1275.2
x1 = 0.93 | 0.0097 | – | –
x1 = 0.9511 | – | 1022.75 | 1277.3
x1 = 0.96 | 0.00478 | – | –
x1 = 1 | – | 1028.45 | 1279.3

CCOC(=O)C(C)O (stereo not drawn) [DL-ethyl lactate] + CO
Details | excess molar enthalpy, [3] [kcal/mol] | mass density, [2] [kg/m3] | speed of sound, [2] [m/s]
x1 = 0.0432 | – | 816.63 | 1125.5
x1 = 0.051 | -0.0088 | – | –
x1 = 0.0935 | – | 846.09 | 1149.1
x1 = 0.104 | -0.0166 | – | –
x1 = 0.1911 | – | 890.78 | 1187
x1 = 0.209 | -0.0299 | – | –
x1 = 0.2979 | – | 926.51 | 1215.4
x1 = 0.327 | -0.0361 | – | –
x1 = 0.3976 | – | 951.94 | 1234.5
x1 = 0.437 | -0.0378 | – | –
x1 = 0.5018 | – | 972.85 | 1250.5
x1 = 0.569 | -0.0356 | – | –
x1 = 0.5789 | – | 985.46 | 1259
x1 = 0.621 | -0.0313 | – | –
x1 = 0.695 | – | 1000.96 | 1270.3
x1 = 0.763 | -0.0199 | – | –
x1 = 0.8045 | – | 1012.66 | 1275.9
x1 = 0.83 | -0.0134 | – | –
x1 = 0.9018 | – | 1021.2 | 1278.2
x1 = 0.905 | -0.00672 | – | –
x1 = 0.958 | -0.00263 | – | –
x1 = 0.9622 | – | 1025.79 | 1279
x1 = 1 | – | 1028.45 | 1279.3

CCCCO [butan-1-ol]
[1]
Details | mass density [kg/m3] | speed of sound [m/s]
– | 805.95 | 1240.4

CCCCO [butan-1-ol] + CCOC(=O)C(C)O
[2], x2 = 0
Details | mass density [kg/m3] | speed of sound [m/s]
– | 805.95 | 1240.4

CCCCO [butan-1-ol] + COC(=O)C(C)O
[2], x2 = 0
Details | mass density [kg/m3] | speed of sound [m/s]
– | 805.95 | 1240.4

CCO [ethanol]
[1]
Details | mass density [kg/m3] | speed of sound [m/s]
– | 785.16 | 1143.2

CCO [ethanol] + CCOC(=O)C(C)O
[2], x2 = 0
Details | mass density [kg/m3] | speed of sound [m/s]
– | 785.16 | 1143.2

CCO [ethanol] + COC(=O)C(C)O
[2], x2 = 0
Details | mass density [kg/m3] | speed of sound [m/s]
– | 785.16 | 1143.2

Source: the NIST ThermoML archive (doi:10.1016/j.jct.2018.07.013)
